The values below come from patent US5710173A, “Thienyl compounds for inhibition of cell proliferative disorders” (Sugen, Inc., priority 1995, dated 1998).

Each structure is given as a SMILES string. pIC50: −log10 of the molar value.

For assay [1], the system named is IGF-1R protein tyrosine kinase. To be noted: Sepp-Lorenzino et al., Abstract, 1994; cited from earlier work.
The subject of assay [2] is human breast cancer cells. To be noted: Sepp-Lorenzino et al., Abstract, 1994; cited from earlier work.
Another assay addresses T1, EGFR (Homo sapiens, UniProt P00533).
T1 construct: expressed in transfected cells; host or cells: NIH3T3 clone C7 (EGFR/C7)
The experiment in a line: EGFR Whole Cell Kinase Assay. The assay is classed as cell-based. Conditions: EGFR/C7 NIH3T3 cells, EGF 25 nM; quantity and unit inferred; read-out: ELISA DATA, EGFR. From the text: The following examples illustrates the ability of the exemplary compounds to inhibit receptor tyrosine kinases, such as HER2 and/or EGFR. The following target cells were used for cellular kinase assays: NIH3T3 clone C7 (Honegger et al., supra) engineered to over-express human EGF receptor; NIH3T3 cells engineered to over-express a chimeric receptor containing the EGFR extracellular domain and the HER2 intracellular kinase domain; the human mammary carcinoma line BT474 (ATCC HTB2) expressing HER2; and the human glioblastoma line U1242 that expresses PDGFR-beta. Growth assays were carried out using human mammary epithelial SKBR3 (ATCC HTB30) cells (SKBR3 cells over-express HER2), SKOV3 (ATCC HTB77) human ovarian cancer cell line (SKOV3 cells also over-express HER2), A431 cells (A431 cells over-express EGFR) MCF7 human breast carcinoma cells, MCF7 cells overexpressing the HER2 kinase (MCF7-HER2), NIH3T3 cells, and NIH3T3 cells overexpressing the HER2 kinase (3T3-HER2.
EGFR Whole Cell Kinase Assay
EGFR kinase activity (EGFR-3T3 assay) in whole cells was measured as described below:
1) EGF Ligand: stock concentration=16.5 μM; EGF 201, TOYOBO, Co., Ltd. Japan.
2) 05-101 (UBI) (a monoclonal antibody recognizing an EGFR extracellular domain).
3) Anti-Phosphotyosine antibody (polyclonal) (made according to Fendley et al., Cancer Research 50:1550-1558, 1990). […]
A general note: ELISA stands for enzyme-linked immunosorbent assay.

T1 sequence (P00533 25-1210): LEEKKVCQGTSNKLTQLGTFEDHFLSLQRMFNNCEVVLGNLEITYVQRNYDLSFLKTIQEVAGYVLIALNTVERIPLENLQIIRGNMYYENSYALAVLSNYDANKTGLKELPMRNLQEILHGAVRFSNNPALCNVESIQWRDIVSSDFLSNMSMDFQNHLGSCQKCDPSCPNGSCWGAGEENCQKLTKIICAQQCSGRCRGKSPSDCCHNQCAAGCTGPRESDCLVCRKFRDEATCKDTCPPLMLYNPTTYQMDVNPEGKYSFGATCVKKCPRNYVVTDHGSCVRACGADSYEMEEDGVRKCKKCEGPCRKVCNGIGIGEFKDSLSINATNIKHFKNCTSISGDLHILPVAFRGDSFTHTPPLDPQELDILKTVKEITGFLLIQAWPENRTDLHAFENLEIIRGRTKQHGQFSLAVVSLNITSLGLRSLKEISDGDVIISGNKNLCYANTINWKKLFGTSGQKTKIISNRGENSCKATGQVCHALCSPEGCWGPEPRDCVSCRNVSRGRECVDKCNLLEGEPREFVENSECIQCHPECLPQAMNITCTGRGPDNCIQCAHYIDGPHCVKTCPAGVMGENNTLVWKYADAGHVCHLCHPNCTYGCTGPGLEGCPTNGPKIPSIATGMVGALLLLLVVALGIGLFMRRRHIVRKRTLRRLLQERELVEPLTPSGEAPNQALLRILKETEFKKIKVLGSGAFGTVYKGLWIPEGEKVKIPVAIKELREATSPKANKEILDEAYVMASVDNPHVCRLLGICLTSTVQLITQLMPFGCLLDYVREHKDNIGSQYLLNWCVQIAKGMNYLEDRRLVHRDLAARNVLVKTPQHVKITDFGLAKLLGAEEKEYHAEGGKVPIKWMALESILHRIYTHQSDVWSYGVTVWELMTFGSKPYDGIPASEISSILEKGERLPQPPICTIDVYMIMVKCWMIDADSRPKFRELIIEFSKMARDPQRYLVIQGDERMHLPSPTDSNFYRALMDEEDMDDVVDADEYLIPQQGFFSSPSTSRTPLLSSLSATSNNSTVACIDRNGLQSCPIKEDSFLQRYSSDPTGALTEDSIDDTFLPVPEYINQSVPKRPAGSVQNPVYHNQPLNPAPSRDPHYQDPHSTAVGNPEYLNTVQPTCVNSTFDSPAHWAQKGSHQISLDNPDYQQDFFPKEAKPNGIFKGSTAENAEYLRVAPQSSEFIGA

With `COC1C=CC=C(C)C(=O)NC2=CC(=O)C=C(C2=O)C(OC)C(C)CC(OC)C(OC)C(C)C=C(C)C1OC(N)=O` (stereo not shown) [Herbimycin A], in assay [1], the “said to inhibit the IGF-1R protein tyrosine kinase” value is reported as “inhibit”. In assay [2], the “said to inhibit cellular proliferation in human breast cancer cells” value is reported as “inhibit”.
As to `N#C/C(=C\c1ccc([N+](=O)[O-])s1)S(=O)(=O)c1ccccc1` [Example G771, (E)-3-(2-nitrothien-5-yl)-2-phenylsulfonylacrylonitrile], the pIC50 on EGFR is less than 4.00.
On the same count and under the same terms, then `N#C/C(=C\c1ccc([N+](=O)[O-])s1)S(=O)(=O)c1ccccn1` [Example G772, (E)-3-(2-nitrothien-5-yl)-2-[(pyridin-2-yl)sulfonyl]acrylonitrile], with less than 4.00.
